Data: the NIST ThermoML archive (doi:10.1016/j.jct.2010.06.009)

Assay: activity coefficient (dimensionless); of the first substance listed, at infinite dilution; xn = mol fraction of the nth substance listed
Conditions: 101 kPa, Liquid, Chromatography, x1 = 0

C=CCCCCCC [oct-1-ene] + CCCCC[n+]1ccccc1.O=S(=O)([N-]S(=O)(=O)C(F)(F)F)C(F)(F)F
Conditions	activity coefficient
303 K	14.2
312.6 K	13.2
322.6 K	12.2
333.4 K	11
343.4 K	9.95
353.4 K	9.08

CCCCCCCC [octane] + CCCCC[n+]1ccccc1.O=S(=O)([N-]S(=O)(=O)C(F)(F)F)C(F)(F)F
Conditions	activity coefficient
303.2 K	25
312.7 K	22.8
323.4 K	20.3
333.3 K	18
343.3 K	15.7
353.3 K	13.7

CO [methanol] + CCCC[n+]1ccccc1.O=S(=O)([N-]S(=O)(=O)C(F)(F)F)C(F)(F)F
Conditions	activity coefficient
302.7 K	2
313.4 K	1.73
323.1 K	1.56
333.1 K	1.39
343.1 K	1.25
353.3 K	1.12

CCCCCC [hexane] + CCCCC[n+]1ccccc1.O=S(=O)([N-]S(=O)(=O)C(F)(F)F)C(F)(F)F
Conditions	activity coefficient
303.3 K	9.78
312.7 K	8.36
323.4 K	7
333.3 K	5.98
343.3 K	5.01
353.3 K	4.25

CO [methanol] + CCCCC[n+]1ccccc1.O=S(=O)([N-]S(=O)(=O)C(F)(F)F)C(F)(F)F
Conditions	activity coefficient
302.8 K	1.62
313.5 K	1.46
323.4 K	1.31
333.3 K	1.18
343.2 K	1.06
353.4 K	0.94

C=CCCCC [hex-1-ene] + CC[n+]1ccccc1.O=S(=O)([N-]S(=O)(=O)C(F)(F)F)C(F)(F)F
Conditions	activity coefficient
302.6 K	11.5
313.1 K	9.42
322.9 K	7.86
332.8 K	6.54
342.9 K	5.34
353 K	4.4

CCCCCCCC [octane] + CCCC[n+]1ccccc1.O=S(=O)([N-]S(=O)(=O)C(F)(F)F)C(F)(F)F
Conditions	activity coefficient
302.7 K	35.4
312.5 K	32.2
323.2 K	29
333.3 K	23.9
343.3 K	20.4
353.4 K	16.8

Cc1ccccc1C [1,2-dimethylbenzene] + CCCCC[n+]1ccccc1.O=S(=O)([N-]S(=O)(=O)C(F)(F)F)C(F)(F)F
Conditions	activity coefficient
303.1 K	1.57
312.8 K	1.61
323.4 K	1.63
333.4 K	1.65
343.3 K	1.66
353.5 K	1.69

Cc1ccccc1 [toluene] + CCCC[n+]1ccccc1.O=S(=O)([N-]S(=O)(=O)C(F)(F)F)C(F)(F)F
Conditions	activity coefficient
302.8 K	1.8
312.6 K	1.82
323.3 K	1.83
333.2 K	1.83
343.2 K	1.85
353.3 K	1.86

CCc1ccccc1 [ethylbenzene] + CCCC[n+]1ccccc1.O=S(=O)([N-]S(=O)(=O)C(F)(F)F)C(F)(F)F
Conditions	activity coefficient
302.8 K	2.74
312.6 K	2.75
323.3 K	2.77
333.2 K	2.77
343.2 K	2.78
353.3 K	2.78

C=CCCCCCC [oct-1-ene] + CC[n+]1ccccc1.O=S(=O)([N-]S(=O)(=O)C(F)(F)F)C(F)(F)F
Conditions	activity coefficient
302.6 K	36.6
313.2 K	31.5
323.2 K	27.2
332.8 K	23.7
342.9 K	19.8
353 K	16.7

c1ccccc1 [benzene] + CCCCC[n+]1ccccc1.O=S(=O)([N-]S(=O)(=O)C(F)(F)F)C(F)(F)F
Conditions	activity coefficient
303.2 K	0.98
312.6 K	0.99
323.2 K	1.01
333.1 K	1.02
343.3 K	1.03
353.5 K	1.04

C1CCCCC1 [cyclohexane] + CCCCC[n+]1ccccc1.O=S(=O)([N-]S(=O)(=O)C(F)(F)F)C(F)(F)F
Conditions	activity coefficient
303.2 K	7.35
312.7 K	6.67
323.4 K	5.91
333.3 K	5.3
343.3 K	4.66
353.3 K	4.06

CCCCCCCC [octane] + CC[n+]1ccccc1.O=S(=O)([N-]S(=O)(=O)C(F)(F)F)C(F)(F)F
Conditions	activity coefficient
302.8 K	52.9
313.3 K	43.5
323.1 K	36
333 K	29.1
342.9 K	23.4
353 K	18.5

Cc1ccc(C)cc1 [1,4-dimethylbenzene] + CCCC[n+]1ccccc1.O=S(=O)([N-]S(=O)(=O)C(F)(F)F)C(F)(F)F
Conditions	activity coefficient
302.8 K	2.45
312.5 K	2.48
323.3 K	2.49
333.3 K	2.52
343.1 K	2.54
353.3 K	2.54

C#CCCCCCC [1-octyne] + CCCCC[n+]1ccccc1.O=S(=O)([N-]S(=O)(=O)C(F)(F)F)C(F)(F)F
Conditions	activity coefficient
302.8 K	5.62
313.6 K	5.47
323.4 K	5.34
333.3 K	5.22
343.4 K	5.07
353.3 K	4.94

CCCO [propan-1-ol] + CCCCC[n+]1ccccc1.O=S(=O)([N-]S(=O)(=O)C(F)(F)F)C(F)(F)F
Conditions	activity coefficient
302.8 K	2.53
313.6 K	2.23
323.4 K	2.02
333.3 K	1.84
343.3 K	1.65
353.3 K	1.49

CCCCCCCCC [nonane] + CC[n+]1ccccc1.O=S(=O)([N-]S(=O)(=O)C(F)(F)F)C(F)(F)F
Conditions	activity coefficient
302.8 K	86.1
313.3 K	74.3
323.1 K	63.4
333 K	51.7
342.9 K	42.2
353 K	33.8

C=CCCCC [hex-1-ene] + CCCC[n+]1ccccc1.O=S(=O)([N-]S(=O)(=O)C(F)(F)F)C(F)(F)F
Conditions	activity coefficient
302.3 K	8.87
312.9 K	7.45
323 K	6.38
332.8 K	5.29
343 K	4.33
352.8 K	3.71

CCCCCC [hexane] + CC[n+]1ccccc1.O=S(=O)([N-]S(=O)(=O)C(F)(F)F)C(F)(F)F
Conditions	activity coefficient
302.8 K	13.8
313.3 K	10.8
323.1 K	8.59
333 K	6.86
342.9 K	5.46
353 K	4.38

CC1CCCCC1 [methylcyclohexane] + CCCC[n+]1ccccc1.O=S(=O)([N-]S(=O)(=O)C(F)(F)F)C(F)(F)F
Conditions	activity coefficient
302.8 K	14.1
312.4 K	12.7
323.2 K	11.6
333.1 K	10.1
343.3 K	8.44
353.4 K	7.2

C#CCCCCC [1-heptyne] + CCCC[n+]1ccccc1.O=S(=O)([N-]S(=O)(=O)C(F)(F)F)C(F)(F)F
Conditions	activity coefficient
302.8 K	5.63
313.3 K	5.49
323.2 K	5.29
333.1 K	5.03
343.1 K	4.79
353.1 K	4.58

CCCCC [pentane] + CCCCC[n+]1ccccc1.O=S(=O)([N-]S(=O)(=O)C(F)(F)F)C(F)(F)F
Conditions	activity coefficient
303.3 K	5.03
312.7 K	4.17
323.4 K	3.42
333.3 K	2.89
343.3 K	2.41
353.3 K	2.07

CCCCCCC [heptane] + CC[n+]1ccccc1.O=S(=O)([N-]S(=O)(=O)C(F)(F)F)C(F)(F)F
Conditions	activity coefficient
302.8 K	29.3
313.3 K	23.1
323.1 K	18.6
333 K	14.7
342.9 K	11.8
353 K	9.37
